Experimental data published in PMC11501026, “L-Arginine and asymmetric dimethylarginine (ADMA) transport across the mouse blood-brain and blood-CSF barriers: Evidence of saturable transport at both interfaces and CNS to blood efflux” (PLOS ONE, 2024).
Several values for one entry are separate records, joined by “and”; a condition that tells them apart may be missing. Equal entries are not always repeated. Where two headings read alike, the source gives them in different places.

Experiments:
Format in all cases: in vivo, mouse
[1] = tested on: [3H]-ADMA transport across the blood-brain and blood-CSF barriers; assay: self-inhibition, in situ perfusion: [^3H]-ADMA with 100 μM unlabelled ADMA; details: male, Balb/c, mouse, other: in situ brain perfusion, with unlabelled ADMA 100 µM, [3H] ADMA + [14C] Sucrose + 100uM un-labelled ADMA, 10 mins, Balb/c ♂, 5ml/min, mean
Description: (§1) Self-inhibition experiments were also performed. […] Cross-competition experiments were also performed.
(§2) The percentage change in the RTissue uptake values achieved in the absence or presence of an unlabelled inhibitor can be calculated by means of Eq 4.
(§3) %change=RTissue−RInhibition/RTissue×100 Eq 4
(§4) We define RInhibition as the RTissue uptake in the presence of an inhibitor in the artificial plasma.
(§5) A decrease in the uptake of radiolabelled solute in the presence of unlabelled inhibitor is indicative of a saturable influx transport system. Conversely, an increase in the uptake of radiolabelled solute in the presence of unlabelled inhibitor is indicative of a saturable efflux transport system.

[2] = tested on: [^3H]-ADMA transport across the blood-brain and blood-CSF barriers; assay: cross-inhibition, in situ perfusion: [^3H]-ADMA with 100 μM unlabelled L-arginine; details: [3H] ADMA + [14C] Sucrose + 100uM Arg, 10 mins, Balb/c ♂, 5ml/min; individual mice
Description: as §1, §2, §3, §4, §5

[3] = tested on: [3H]-ADMA transport across the blood-brain and blood-CSF barriers; assay: as above; details: male, Balb/c, mouse, other: in situ brain perfusion, with 100 µM unlabelled L-arginine, [3H] ADMA + [14C] Sucrose + 100uM Arg, 10 mins, Balb/c ♂, 5ml/min
Description: as §1, §2, §3, §4, §5

[4] = as above; details: male, Balb/c, mouse, brain homogenate, other: in situ brain perfusion, with 100 µM unlabelled L-arginine, [3H] ADMA + [14C] Sucrose + 100uM Arg, 10 mins, Balb/c ♂, 5ml/min; mean; read-out: uptake, homogenate
Description: as §1, §2, §3, §4, §5

[5] = capillary depletion analysis after in situ brain perfusion; design: [3H] ADMA and [14C] Sucrose uptake, homogenate / Difference (ADMA minus Sucrose), homogenate / [3H] ADMA and [14C] Sucrose uptake, supernatant / Difference (ADMA minus Sucrose), supernatant / uptake, homogenate / uptake, supernatant: unit not given here; details: for Kp at 30 min: other: in situ brain perfusion with artificial plasma
Description: The microvasculature within a sample of brain tissue can be separated from the brain parenchyma using capillary depletion analysis. Following perfusion, the remaining brain tissue after microdissection of the regions described above (typically 200–300 mg) underwent capillary depletion following a method modified for mouse. […]

Structure (SMILES): OC[C@H]1O[C@@](CO)(O[C@H]2O[C@H](CO)[C@@H](O)[C@H](O)[C@H]2O)[C@@H](O)[C@@H]1O [[^14C]-sucrose, reference compound]
- Kp at 10 min, 62.5 nM ([1]; CSF, read-out: uptake into CSF): 0.138
- Kp at 10 min, 62.5 nM ([1]; pituitary gland, read-out: uptake into pituitary gland): 0.0955
- uptake, pellet [2]: 0.001402
- Kp at 10 min, 62.5 nM ([3]; choroid plexus, individual mice, read-out: uptake into choroid plexus): 0.14
- Kp at 10 min, 62.5 nM ([3]; choroid plexus, mean, read-out: uptake into choroid plexus): 0.145
- Kp at 10 min, 62.5 nM ([3]; hypothalamus, mean, read-out: uptake into hypothalamus): 0.0327
- Kp at 10 min, 62.5 nM ([3]; pituitary gland, mean, read-out: uptake into pituitary gland): 0.113
- Kp at 10 min, 62.5 nM ([3]; pons, mean, read-out: uptake into pons): 0.0462
- Kp at 10 min, 62.5 nM [4]: 0.0365
- [3H] ADMA and [14C] Sucrose uptake, supernatant ([5]; 2.5 mins, Balb/c ♂, 5ml/min, individual mouse): 0.005063
- uptake, pellet ([5]; [3H] ADMA + [14C] Sucrose, 30 mins, Balb/c ♂, 5ml/min, individual mice): 0.004118 and 0.004644 and 0.005073
- Kp at 20 min, 62.5 nM ([5]; male, BALB/c, mouse, capillary depletion pellet (endothelial cell-enriched), [3H] ADMA and [14C] Sucrose uptake, pellet, 20 mins, 5ml/min, mean): 0.00274
- Kp at 30 min ([5]; male, BALB/c, mouse, capillary depletion pellet (endothelial cell-enriched), pellet: [14C] Sucrose, 30 mins, Balb/c ♂, 5ml/min, single mouse): 0.00943
- Kp at […] ([5]; male, BALB/c, mouse, capillary depletion supernatant (brain parenchyma), [3H] ADMA and [14C] Sucrose uptake, supernatant, 2.5 mins, 5ml/min, mean): 0.0098
- Kp at […] ([5]; male, BALB/c, mouse, endothelial cell-enriched pellet (capillary depletion), [3H] ADMA and [14C] Sucrose uptake, pellet, 2.5 mins, 5ml/min, mean): 0.00237
- Kp at 30 min, 62.5 nM ([5]; male, BALB/c, mouse, endothelial cell-enriched pellet (capillary depletion), other: in situ brain perfusion, [3H] ADMA + [14C] Sucrose, 30 mins, Balb/c ♂, 5ml/min, individual mice, read-out: uptake, pellet): 0.00308
- Kp at 30 min, 62.5 nM ([5]; male, BALB/c, mouse, endothelial cell-enriched pellet (capillary depletion), other: in situ brain perfusion, [3H] ADMA + [14C] Sucrose, 30 mins, Balb/c ♂, 5ml/min, mean, read-out: uptake, pellet): 0.00455
- Kp at […] ([5]; male, BALB/c, mouse, endothelial cell-enriched pellet (capillary depletion), pellet, 2.5 mins, uncorrected, given as fraction, read-out: tissue or CSF to plasma ratio (mean)): 0.00218
- Kp at 10 min ([5]; male, BALB/c, mouse, endothelial cell-enriched pellet (capillary depletion), pellet, 10 mins, uncorrected, given as fraction, read-out: tissue or CSF to plasma ratio (mean)): 0.00461
- Kp at 30 min ([5]; male, BALB/c, mouse, whole-brain homogenate (capillary depletion), homogenate: [14C] Sucrose, 30 mins, Balb/c ♂, 5ml/min, mean): 0.0653
- Kp at 30 min, 62.5 nM ([5]; male, BALB/c, mouse, whole-brain homogenate (capillary depletion), other: in situ brain perfusion, [3H] ADMA + [14C] Sucrose, 30 mins, Balb/c ♂, 5ml/min, mean, read-out: uptake, homogenate): 0.0336
- Kp at 10 min, 62.5 nM ([5]; male, BALB/c, mouse, whole-brain homogenate (capillary depletion), other: in situ brain perfusion, [3H] ADMA and [14C] Sucrose uptake, homogenate, CONTROL, 10 mins, Balb/c ♂, 5ml/min, mean): 0.0971
- Kp at 10 min ([5]; male, Balb/c, mouse, endothelial cell-enriched pellet after capillary depletion, other: in situ brain perfusion, with unlabelled ADMA 3 µM, Arginine / Sucrose uptake, pellet, mean, [3H] Arginine + [14C] Sucrose + 3 uM ADMA, 10 mins, Balb/c ♂, 5ml/min, mean): 0.00326
- Kp at 10 min ([5]; male, Balb/c, mouse, endothelial cell-enriched pellet after capillary depletion, other: in situ brain perfusion, with unlabelled ADMA 10 µM, Arginine / Sucrose uptake, pellet, mean, [3H] Arginine + [14C] Sucrose + 10 uM ADMA, 10 mins, Balb/c ♂, 5ml/min, mean): 0.00425
- Kp at 10 min ([5]; male, Balb/c, mouse, endothelial cell-enriched pellet, other: in situ brain perfusion, with unlabelled ADMA 100 µM, Arginine / Sucrose uptake, pellet, mean, [3H] Arginine + [14C] Sucrose + 100µM un-labelled ADMA, 10 mins, Balb/c ♂, 5ml/min, mean): 0.00383
- Kp at 10 min ([5]; male, Balb/c, mouse, supernatant (brain parenchyma) after capillary depletion, other: in situ brain perfusion, with unlabelled ADMA 3 µM, Arginine / Sucrose uptake, supernatant, mean, [3H] Arginine + [14C] Sucrose + 3 uM ADMA, 10 mins, Balb/c ♂, 5ml/min, mean): 0.0159
- Kp at 10 min ([5]; male, Balb/c, mouse, supernatant (brain parenchyma), other: in situ brain perfusion, with unlabelled ADMA 100 µM, Arginine / Sucrose uptake, supernatant, [3H] Arginine + [14C] Sucrose + 100µM un-labelled ADMA, 10 mins, Balb/c ♂, 5ml/min, single mice): 0.0158
